Measured values from US4394503A, “Cephalosporin derivatives” (priority 1981, dated 1983).
Values after ≈ are worked out from the molar mass of the structure shown. Structures can show the parent of a compound that is named as a salt. Where two headings read alike, the source gives them in different places.

How the values were obtained:
[1] = prior-art filing; cited from earlier work
Ps. aeruginosa (Gn-III) = assay: In vitro antibacterial activity, two-fold agar dilution, Mueller-Hinton agar (Table 1), group Gn-III; type: cell-based; conditions: Pseudomonas aeruginosa; read-out: Geometric Mean of MIC
[2] = system: Pr. morganii, Ent. cloacae and Ser. marcescens (Gn-II); assay: In vitro antibacterial activity, two-fold agar dilution, Mueller-Hinton agar (Table 1), group Gn-II; type: cell-based, Pr. morganii (1), Ent. cloacae (2) and Ser. marcescens (2); conditions: read-out: Geometric Mean of MIC
[3] = system: Penicillin-sensitive S. aureus (Gp-Ia); assay: In vitro antibacterial activity, two-fold agar dilution, Mueller-Hinton agar (Table 1), group Gp-Ia; type: cell-based; conditions: Staphylococcus aureus; read-out: Geometric Mean of MIC
[4] = system: Penicillin-resistant S. aureus (Gp-Ib); assay: In vitro antibacterial activity, two-fold agar dilution, Mueller-Hinton agar (Table 1), group Gp-Ib; type: cell-based; conditions: Staphylococcus aureus; read-out: Geometric Mean of MIC
[5] = system: Cephalothin-sensitive E. coli, Kl. pneumoniae and Pr. mirabilis (Gn-Ia); assay: In vitro antibacterial activity, two-fold agar dilution, Mueller-Hinton agar (Table 1), group Gn-Ia; type: cell-based; conditions: read-out: Geometric Mean of MIC
[6] = system: Cephalothin-resistant E. coli and Kl. pneumoniae (Gn-Ib); assay: In vitro antibacterial activity, two-fold agar dilution, Mueller-Hinton agar (Table 1), group Gn-Ib; type: cell-based, E. coli (3) and Kl. pneumoniae (3); conditions: Escherichia coli, read-out: Geometric Mean of MIC
B. fragilis Group I = assay: In vitro antianaerobic activity in GAM agar (Table 4); type: cell-based; conditions: Bacteroides fragilis
[7] = system: Others Group IV (C. difficile, C. perfringens, P. acne and P. anaerobius); assay: microbe, parasite or virus in culture; type: cell-based; conditions: read-out: Geometric Mean of MIC, GAM agar, 1 strain each
B. fragilis Group II = assay: In vitro antianaerobic activity in GAM agar (Table 4); type: cell-based; conditions: Bacteroides fragilis; read-out: Geometric Mean of MIC
B. fragilis Group III = assay: as above; type: cell-based; conditions: read-out: Geometric Mean of MIC
P. aeruginosa A15150 = assay: MIC against selected test organisms (Table 2); type: cell-based; conditions: Pseudomonas aeruginosa, A15150; Gn-III, CET-R; read-out: Minimum Inhibitory Concentration
B. fragilis A22533 = assay: MIC against selected test organisms (Table 2); type: cell-based; conditions: Bacteroides fragilis, A22533; Anaerobe, AMP-R; read-out: Minimum Inhibitory Concentration
B. fragilis A20928-1 = assay: MIC against selected test organisms (Table 2); type: cell-based; conditions: Bacteroides fragilis, A209281; Anaerobe, CET-S; read-out: Minimum Inhibitory Concentration
C. difficile A21675 = assay: MIC against selected test organisms (Table 2); type: cell-based; conditions: Clostridioides difficile, A21675; Anaerobe, CLDM-R; read-out: Minimum Inhibitory Concentration
C. perfringens A9635 = assay: microbe, parasite or virus in culture; type: cell-based; conditions: Clostridium perfringens, A9635, read-out: Minimum Inhibitory Concentration
P. mirabilis A9554 = assay: MIC against selected test organisms (Table 2); type: cell-based; conditions: Proteus mirabilis, A9554; Gn-Ia, CET-S; read-out: Minimum Inhibitory Concentration
B. fragilis A21900 = assay: MIC against selected test organisms (Table 2); type: cell-based; conditions: Bacteroides fragilis, A21900; Anaerobe, CET-S; read-out: Minimum Inhibitory Concentration
E. cloacae A9656 = assay: MIC against selected test organisms (Table 2); type: cell-based; conditions: Enterobacter cloacae, Gn-II, CET-R, read-out: Minimum Inhibitory Concentration
P. morganii A9553 = assay: MIC against selected test organisms (Table 2); type: cell-based; conditions: Morganella morganii, A9553; Gn-II, CET-R; read-out: Minimum Inhibitory Concentration
B. fragilis A22695 = assay: MIC against selected test organisms (Table 2); type: cell-based; conditions: Bacteroides fragilis, A22695; Anaerobe, AMP-R; read-out: Minimum Inhibitory Concentration
P. aeruginosa A20717 = assay: MIC against selected test organisms (Table 2); type: cell-based; conditions: Pseudomonas aeruginosa, A20717; Gn-III, CET-R; read-out: Minimum Inhibitory Concentration
S. aureus A9497 = assay: MIC against selected test organisms (Table 2); type: cell-based; conditions: Staphylococcus aureus, Gp-Ia, PC-S, read-out: Minimum Inhibitory Concentration
B. fragilis A22021 = assay: MIC against selected test organisms (Table 2); type: cell-based; conditions: Bacteroides fragilis, A22021; Anaerobe, CET-R; read-out: Minimum Inhibitory Concentration
S. aureus BX-1633 = assay: MIC against selected test organisms (Table 2); type: cell-based; conditions: Staphylococcus aureus, BX1633; Gp-Ib, PC-R; read-out: Minimum Inhibitory Concentration
P. acnes A21933 = assay: MIC against selected test organisms (Table 2); type: cell-based; conditions: Cutibacterium acnes, A21933; Anaerobe, CLDM-R; read-out: Minimum Inhibitory Concentration
S. marcescens A20019 = assay: MIC against selected test organisms (Table 2); type: cell-based; conditions: Serratia marcescens, A20019; Gn-II, CET-R; read-out: Minimum Inhibitory Concentration
E. coli A15148 = assay: MIC against selected test organisms (Table 2); type: cell-based; conditions: Escherichia coli, A15148; Gn-Ib, CET-R; read-out: Minimum Inhibitory Concentration
K. pneumoniae A 9867 = assay: MIC against selected test organisms (Table 2); type: cell-based; conditions: Klebsiella pneumoniae, A9867; Gn-Ib, CET-R; read-out: Minimum Inhibitory Concentration
P. aeruginosa A9843 [8] = assay: MIC against selected test organisms (Table 2); type: cell-based; conditions: Pseudomonas aeruginosa, A9843; Gn-III, CET-R; read-out: Minimum Inhibitory Concentration
E. coli Juhl [9] = assay: Therapeutic efficacy in experimentally infected mice (Table 5); type: in vivo; conditions: Escherichia coli, im, 120 h; i.m., immediately after intraperitoneal challenge, 5 days observation; read-out: PD50 (median protective dose)
Description: (§1) The test compounds were administered intramuscularly immediately after the bacterial challenge.

S. aureus Smith [10] = assay: as above; type: in vivo; conditions: Staphylococcus aureus, im, 120 h; i.m., immediately after intraperitoneal challenge, 5 days observation; read-out: PD50 (median protective dose)
Description: as §1

P. aeruginosa A9843 [11] = assay: as above; type: in vivo; conditions: Pseudomonas aeruginosa, A9843, im, 120 h; i.m., immediately after intraperitoneal challenge, 5 days observation; read-out: PD50 (median protective dose)
Description: as §1

S. aureus Smith [12] = assay: MIC against selected test organisms (Table 2); type: cell-based; conditions: Staphylococcus aureus; Gp-Ia, PC-S; read-out: Minimum Inhibitory Concentration
E. coli Juhl [13] = assay: MIC against selected test organisms (Table 2); type: cell-based; conditions: Escherichia coli; Gn-Ia, CET-S; read-out: Minimum Inhibitory Concentration
S. aureus A15092 = assay: MIC against selected test organisms (Table 2); type: cell-based; conditions: Staphylococcus aureus, Gp-Ib, PC-R, read-out: Minimum Inhibitory Concentration
B. fragilis A22693 = assay: MIC against selected test organisms (Table 2); type: cell-based; conditions: Bacteroides fragilis, A22693; Anaerobe, CET-R; read-out: Minimum Inhibitory Concentration
K. pneumoniae D11 = assay: MIC against selected test organisms (Table 2); type: cell-based; conditions: Klebsiella pneumoniae, D11; Gn-Ia, CET-S; read-out: Minimum Inhibitory Concentration

## CC(C)(O/N=C(\C(=O)N[C@@H]1C(=O)N2C(C(=O)[O-])=C(C[n+]3ccccc3)CS[C@H]12)c1csc(N)n1)C(=O)O [bishydrochloride of ceftazidime]
[1]
  storage stability: good storage stability

## CSc1cccc[n+]1CC1=C(C(=O)[O-])N2C(=O)C(NC(=O)/C(=N\OC(C)(C)C(=O)O)c3csc(N)n3)C2SC1 (stereo not drawn) [Example 3, 7-[(Z)-2-(2-Aminothiazol-4-yl)-2-(2-carboxyprop-2-oxyimino)-acetamido]-3-[(2-methylthiopyridinium)methyl]-3-cephem-4-carboxylate]
Ps. aeruginosa (Gn-III)
  MIC: 5.6 µg/mL (≈ 9.45 µM)
[2]
  MIC: 3.2 µg/mL (≈ 5.4 µM)
[3]
  MIC: 9.5 µg/mL (≈ 16 µM)
[4]
  MIC: 12.5 µg/mL (≈ 21.1 µM)
[5]
  MIC: 0.11 µg/mL (≈ 0.186 µM)
[6]
  MIC: 2 µg/mL (≈ 3.37 µM)

## CC(C)Sc1cc[n+](CC2=C(C(=O)[O-])N3C(=O)C(NC(=O)/C(=N\OC(C)(C)C(=O)O)c4csc(N)n4)C3SC2)cc1 (stereo not drawn) [Example 5, 7-[(Z)-2-(2-Aminothiazol-4-yl)-2-(2-carboxyprop-2-oxyimino)-acetamido]-3-[(4-isopropylthiopyridinium)methyl]-3-cephem-4-carboxylate]
B. fragilis Group I; read-out: Geometric Mean of MIC
  MIC: 3.2 µg/mL (≈ 5.16 µM)
Ps. aeruginosa (Gn-III)
  MIC: 12.5 µg/mL (≈ 20.1 µM)
[2]
  MIC: 2.4 µg/mL (≈ 3.87 µM)
[7]; Example 5 ceftazidime (mean of 2 experiments)
  MIC: 3.5 µg/mL (≈ 5.64 µM)
B. fragilis Group II
  MIC: 25 µg/mL (≈ 40.3 µM)
[3]
  MIC: 4.7 µg/mL (≈ 7.57 µM)
[4]
  MIC: 12.5 µg/mL (≈ 20.1 µM)
[5]
  MIC: 0.11 µg/mL (≈ 0.177 µM)
B. fragilis Group III
  MIC: > 100 µg/mL
[6]
  MIC: 1 µg/mL (≈ 1.61 µM)

## CCSc1cc[n+](CC2=C(C(=O)[O-])N3C(=O)C(NC(=O)/C(=N\OC(C)(C)C(=O)O)c4csc(N)n4)C3SC2)cc1 (stereo not drawn) [Example 4, 7-[(Z)-2-(2-Aminothiazol-4-yl)-2-(2-carboxyprop-2-oxyimino)acetamido]-3-[(4-ethylthiopyridinium)methyl]-3-cephem-4-carboxylate]
B. fragilis Group I; read-out: Geometric Mean of MIC, GAM agar, Example 4, ceftazidime (mean of 3 experiments), nonlactamase-producing, ampicillin-sensitive, 3 strains
  MIC: 2.5 µg/mL (≈ 4.12 µM)
Ps. aeruginosa (Gn-III)
  MIC: 8.8 µg/mL (≈ 14.5 µM)
[2]
  MIC: 2.1 µg/mL (≈ 3.46 µM)
[7]; Example 4, ceftazidime (mean of 3 experiments)
  MIC: 8.9 µg/mL (≈ 14.7 µM)
B. fragilis Group II
  MIC: 12.5 µg/mL (≈ 20.6 µM)
[3]
  MIC: 6.3 µg/mL (≈ 10.4 µM)
[4]
  MIC: 12.5 µg/mL (≈ 20.6 µM)
[5]
  MIC: 0.087 µg/mL (≈ 0.143 µM)
B. fragilis Group III
  MIC: 100 µg/mL (≈ 165 µM)
[6]
  MIC: 1.3 µg/mL (≈ 2.14 µM)

## CSc1ccc[n+](CC2=C(C(=O)[O-])N3C(=O)C(NC(=O)/C(=N\OC(C)(C)C(=O)O)c4csc(N)n4)C3SC2)c1 (stereo not drawn) [Example 1, 7-[(Z)-2-(2-Aminothiazol-4-yl)-2-(2-carboxyprop-2-oxyimino)acetamido]-3-[(3-methylthiopyridinium)methyl]-3-cephem-4-carboxylate]
P. aeruginosa A15150
  MIC: 1.6 µg/mL (≈ 2.7 µM)
B. fragilis A22533
  MIC: > 100 µg/mL
B. fragilis A20928-1
  MIC: 6.3 µg/mL (≈ 10.6 µM)
C. difficile A21675
  MIC: > 100 µg/mL
C. perfringens A9635
  MIC: 25 µg/mL (≈ 42.2 µM)
Ps. aeruginosa (Gn-III)
  MIC: 3.5 µg/mL (≈ 5.91 µM)
P. mirabilis A9554
  MIC: 0.1 µg/mL (≈ 0.169 µM)
B. fragilis A21900
  MIC: 6.3 µg/mL (≈ 10.6 µM)
[2]
  MIC: 2.8 µg/mL (≈ 4.72 µM)
E. cloacae A9656
  MIC: 0.4 µg/mL (≈ 0.675 µM)
P. morganii A9553
  MIC: 1.6 µg/mL (≈ 2.7 µM)
[3]
  MIC: 4.7 µg/mL (≈ 7.93 µM)
[4]
  MIC: 12.5 µg/mL (≈ 21.1 µM)
B. fragilis A22695
  MIC: 50 µg/mL (≈ 84.4 µM)
[5]
  MIC: 0.11 µg/mL (≈ 0.186 µM)
P. aeruginosa A20717
  MIC: 12.5 µg/mL (≈ 21.1 µM)
S. aureus A9497
  MIC: 3.1 µg/mL (≈ 5.23 µM)
B. fragilis A22021
  MIC: 25 µg/mL (≈ 42.2 µM)
S. aureus BX-1633
  MIC: 12.5 µg/mL (≈ 21.1 µM)
P. acnes A21933
  MIC: 1.6 µg/mL (≈ 2.7 µM)
S. marcescens A20019
  MIC: 0.2 µg/mL (≈ 0.337 µM)
[6]
  MIC: 1.1 µg/mL (≈ 1.86 µM)
E. coli A15148
  MIC: 0.4 µg/mL (≈ 0.675 µM)
K. pneumoniae A 9867
  MIC: 3.1 µg/mL (≈ 5.23 µM)
P. aeruginosa A9843 [8]
  MIC: 3.1 µg/mL (≈ 5.23 µM)
E. coli Juhl [9]
  ED50: 0.46 mg/kg
S. aureus Smith [10]
  ED50: 6 mg/kg
P. aeruginosa A9843 [11]
  ED50: 12 mg/kg
S. aureus Smith [12]
  MIC: 6.3 µg/mL (≈ 10.6 µM)
E. coli Juhl [13]
  MIC: 0.2 µg/mL (≈ 0.337 µM)
S. aureus A15092
  MIC: 12.5 µg/mL (≈ 21.1 µM)
B. fragilis A22693
  MIC: 25 µg/mL (≈ 42.2 µM)
K. pneumoniae D11
  MIC: 0.4 µg/mL (≈ 0.675 µM)
